This is an account of results in US20260007133A1, “HERBICIDAL COMPOSITION COMPRISING AZINE COMPOUNDS” (BASF SE, priority 2022, published 2026).

SMILES strings stand for the structures.

Common to all, as to assay type: in vivo
One experiment deals with Lolium multiflorum. The experiment is described as follows: Greenhouse pre-emergence (PRE) herbicidal test on LOLMU. Put shortly:
(§1)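 Visual 0–100 rating at 20 days after treatment; 0 = normal growth, 100 = no emergence or complete kill of shoots. Pre-emergent application to seeded pots of loamy sand (~3.0% humus), species-dependent temperature 10-25° C or 20-35° C.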

A further experiment concerns Euphorbia heterophylla. The experiment can be described thus: Greenhouse pre-emergence (PRE) herbicidal test on EPHHL. The settings on record: Euphorbia heterophylla, pre-emergence, EPHHL PRE, use rate 200 gai/ha. The method in brief:
as §1

The test system of another experiment is SETFA. The experiment is described as follows: Greenhouse pre-emergence (PRE) herbicidal test on SETFA. The settings on record: Setaria faberi, use rate 50 gai/ha.
For the next experiment, the system named is Commelina benghalensis. The experiment is described as follows: Greenhouse pre-emergence (PRE) herbicidal test on COMBE. The settings on record: Commelina benghalensis, pre-emergence, COMBE PRE, use rate 50 gai/ha. The method in brief:
as §1

The next experiment relates to Brachiaria decumbens. The experiment can be described thus: Greenhouse pre-emergence (PRE) herbicidal test on BRADC. The settings on record: Urochloa decumbens, BRADC PRE, use rate 200 gai/ha. The source says: (§2) The culture containers used were plastic pots containing loamy sand with approximately 3.0% of humus as substrate. The seeds of the test plants were sown separately for each species.
(§3) For the pre-emergence treatment, the active compounds, suspended or emulsified in water, were applied directly after sowing by means of finely distributing nozzles. The containers were irrigated gently to promote germination and growth and subsequently covered with transparent plastic hoods until the plants had rooted. This cover caused uniform germination of the test plants unless this was adversely affected by the active compounds.
(§4) Depending on the species, the plants were kept at 10-25° C. and 20-35° C., respectively.
(§5) The test period extended over 2 to 4 weeks. During this time, the plants were tended and their response to the individual treatments was evaluated.
(§6) Evaluation was carried out using a scale from 0 to 100. 100 means no emergence of the plants, or complete destruction of at least the above-ground parts, and 0 means no damage or normal course of growth. A good herbicidal activity is given at values of at least 70, and very good herbicidal activity is given at values of at least 85.
(§7) If not stated differently, the respective components A and B, and if appropriate, C were formulated as a 5% by weight strength emulsion concentrate and, with addition of the amount of solvent system, introduced into the spray liquor used for applying the active compound.
(§8) As indicated application was either post emergent (POST) at the respective growth stage (GS) of the weed (BBCH code), or pre-emergent (PRE).
(§9) Assessment was 20 days after treatment (DAT).

Another experiment concerns Alopecurus myosuroides. The experiment is described as follows: Greenhouse pre-emergence (PRE) herbicidal test on ALOMY. The conditions noted are these: Alopecurus myosuroides, pre-emergence, ALOMY PRE, use rate 200 gai/ha. The method in brief:
as §1

Another experiment concerns Abutilon theophrasti. The experiment is described as follows: Greenhouse pre-emergence (PRE) herbicidal test on ABUTH. The conditions noted are these: Abutilon theophrasti, pre-emergence, ABUTH PRE, use rate 50 gai/ha. Put shortly:
as §1

The subject of a further experiment is Geranium pusillum. The experiment is described as follows: Greenhouse pre-emergence (PRE) herbicidal test on GERPU. The settings on record: Geranium pusillum, pre-emergence, GERPU PRE. Put shortly: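 Damage was rated visually on a 0 to 100 scale at 20 days after treatment, where 0 meant normal growth and 100 meant no emergence or complete kill of above-ground parts. Compounds were applied in water to freshly sown loamy-sand pots.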

In the next experiment the test system is Avena fatua. The experiment can be described thus: Greenhouse pre-emergence (PRE) herbicidal test on AVEFA.
Excerpt: as §2, §3, §4, §5, §6, §7, §8, §9

For another experiment, the system named is Ambrosia artemisiifolia. The experiment is described as follows: Greenhouse pre-emergence (PRE) herbicidal test on AMBEL. The settings on record: PRE, use rate 12.5 gai/ha, 20 DAT.
Experiment [1] has as its system AMAPA. The experiment is described as follows: Greenhouse pre-emergence (PRE) herbicidal test on AMAPA. The conditions noted are these: use rate 3.1 gai/ha, 20 DAT.
The test system of experiment [2] is AMAPA. The experiment can be described thus: Greenhouse post-emergence (POST) herbicidal test on AMAPA. The conditions noted are these: use rate 12.5 gai/ha, 20 DAT.

On to `CCCCOCN(C(=O)CCl)c1c(CC)cccc1CC` [Butachlor, butachlor], for which the inhibition at 50 g/ha in the experiment with Lolium multiflorum (Lolium multiflorum, pre-emergence, LOLMU PRE, use rate 50 gai/ha) stood at 0%; with SETFA it was 25%; with Commelina benghalensis, 70%; in the experiment with Abutilon theophrasti, 0%; with Geranium pusillum (use rate 50 gai/ha), 55%; in the experiment with Avena fatua (use rate 50 gai/ha), 0%. Further, the inhibition at 200 g/ha in the experiment with Lolium multiflorum (Lolium multiflorum, pre-emergence, LOLMU PRE, use rate 200 gai/ha) is 0%; with Euphorbia heterophylla, 5%; in the experiment with Brachiaria decumbens it was 30%; with Alopecurus myosuroides it was 0%; in the experiment with Geranium pusillum (use rate 200 gai/ha) it was 25%; in the experiment on Avena fatua (use rate 200 gai/ha), 0%.

For the compound `C#CCN(C)c1c(C#N)cnn1-c1nn2c(c1Cl)CCCC2` [Pyraclonil, pyraclonil], the “% activity” value came out at 0% in the experiment on Ambrosia artemisiifolia; 0% in the experiment on Lolium multiflorum (PRE, use rate 12.5 gai/ha, 20 DAT); 50% in the experiment with AMAPA [1]; 90% with AMAPA [2].
